This is an account of results in US9133164B2, “MIF inhibitors and their uses” (INNOV88 LLC, priority 2011, dated 2015).

For one assay, the target named is T1, Native human MIF (Homo sapiens, UniProt P14174).
T1 sequence (P14174 2-115 limits assumed): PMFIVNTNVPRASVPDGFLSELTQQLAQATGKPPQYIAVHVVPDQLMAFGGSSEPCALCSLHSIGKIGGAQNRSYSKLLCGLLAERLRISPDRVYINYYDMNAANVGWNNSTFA
Nature of the assay: MIF tautomerase activity assay (HPP substrate). Type of assay: biochemical. The conditions noted are these: absorbance at 300 nm. As for the experimental part:
The ability of candidate compounds to inhibit this tautomerase activity is quantitated by wing hydroxyphenyl pyruvic acid (HPP) as a substrate and following the increase in absorbance due to the enzymatic formation of the HPP enol-borate complex at 300 nm in the absence and presence of a test compound. The IC50 value of compounds was determined by plotting the initial velocities determined at 300 nm as a function of a test compound's concentration. Assays were carried out in a 96 or 384 well plate format.
Representative MIF inhibitors were tested in the assay described above and the results tabulated in Table 1 wherein “A” represents ≦1 μM; “B” represents >1 μM and ≦100 μM; “C” represents >100 μM

Another assay relates to LPS-stimulated PBMCs. Nature of the assay: Cytokine production in LPS-stimulated human PBMCs (ELISA). Type of assay: cell-based. The conditions noted are these: for inhibition at 2.5 µM / inhibition at 25 µM: Homo sapiens, PBMC. An excerpt: MIF is secreted by monocytes/macrophages, activated T cells and several effector cells that play an important role in the perpetuation of inflammatory responses of the disease pathogenesis of several autoimmune and inflammatory disorders. MIF promotes the production of proinflammatory mediators such as tumor necrosis factor-α (TNF-α), interleukin (IL)-1β, IL-6 and IL-8 acting in an autocrine and paracrine function in the induction of proinflammatory responses. MIF has also been reported to stimulate the production of IL-17, a T helper 17 (Th17)-specific cytokine critical to the pathogenesis of several autoimmune and inflammatory diseases. […] Mono-Mac-6 Cells: The cellular efficacy of compound candidates is determined using the human monocytic cell line, Mono-Mac-6 cells (MM6 cells) as it has been shown that MM6 cells abundantly express MIF receptors CD74 and CXCR4. MIF-mediated signal transduction through these receptors may be important for the production of inflammatory mediators, including TNF-α, IL-1β, IL-6, IL-8, interferon-γ (IFN-γ) and prostaglandin E2 (PGE2) in these cells. To induce the production of inflammatory mediators, MM6 cells will be plated at a final concentration of 5×10^5 cells/ml in RPMI 1640 medium containing 1% heat-inactivated low-pyrogen fetal bovine serum, 2 mM GlutaMAX-I, 1% non-essential amino acids, 1% sodium pyruvate, 100 units/ml penicillin G and 100 μg/ml streptomycin (Gibco BRL Life Technologies). Cells will be stimulated with 100 ng/ml rhMIF purchased commercially or generated in house with or without inhibitor for 20 h at 37° C. with 5% CO2. The supernatants are stored at […] until they are to be assayed. The levels of inflammatory mediators will be determined using commercial :ELISA kits (eBiosciences). Human Peripheral Blood Mononuclear Cells (PBMCs): The cellular efficacy of compound candidates in inhibiting the production of proinflammatory mediators TNF-α, IL-1β, IL-6 and IL-8 following lipopolysaccharide (LPS) and rhMIF stimulation, and the production of T helper 17 (Th17)-specific cytokines IL-17F and IL-22 following anti-CD3/anti-CD28 stimulation, are determined in human PBMCs. To induce the production of proinflammatory cytokine mediators, cryopreserved human PBMCs (Cellular Technology Ltd.) are plated at a final concentration of 2×10^5 cells/ml in RPMI 1640 medium containing 1% heat-inactivated fetal bovine serum, 1% L-Glutamine and 1% Penicillin/Streptomycin (Lonza). Cells are pre-incubated with or without inhibitor compounds dissolved in DMSO for 1 hour, then stimulated with LPS (Sigma Aldrich) or rhMIF to yield final concentrations of <0.1% DMSO, 100 ng/ml LPS and the compound concentration of interest. The potency of the compound candidates in inhibiting cytokine production is compared, to other small molecule MIF inhibitor standards ISO-1 (EMD Chemicals) N-acetyl-p-benzoquinone imine (NAPQI) and Ibudilast (TCI America). Cells were incubated for 20 hours at 37° C., 5% CO2. For the Th17-specific cytokine production assay, cells are stimulated with 5 ug/mL plate immobilized anti-CD3 (eBioscience) and 2 ug/mL soluble anti-CD28 (eBioscience) in the presence or absence of inhibitor compounds dissolved in DMSO to yield final compound concentrations of interest at <0.1% DMSO. Cells were incubated for 72 hours at 37° C. and 5% CO2. The supernatants are stored at −20° C. until they are to be assayed by ELISA. Cell viability is determined using PrestoBlue™ Cell Viability Reagent (Invitrogen). The cytokine production levels of TNF-α, IL-1β, IL-6, IL-8, IL-17F and IL-22 are determined using commercial ELISA kits (eBiosciences). Human Rheumatoid Arthritis Synovial Fibroblast (RASF) Cell Line: RASF cells are cultured in Dulbecco's modified Eagle's medium with 15% FBS, 1% glutamine, and 1% penicillin/streptamycin (all from Gibco (Invitrogen), Gaithersburg, Md.). […]
On the technique in general: In an ELISA, binding on a coated surface is turned into a signal by an enzyme label.

The mark [1] stands for this setting: LPS-stimulated PBMCs, compound at 2.5 uM, 1 hour preincubation, 20 hours, read-out: percent inhibition of IL-1β production.
Where [2] appears, read: LPS-stimulated PBMCs, compound at 2.5 uM, 1 hour preincubation, 20 hours, read-out: percent inhibition of IL-6 production.
The mark [3] stands for this setting: LPS-stimulated PBMCs, compound at 2.5 uM, 1 hour preincubation, 20 hours, read-out: percent inhibition of IL-8 production.
[4] abbreviates: LPS-stimulated PBMCs, compound at 2.5 uM, 1 hour preincubation, 20 hours, read-out: percent inhibition of TNF-α production.
Where [5] appears, read: LPS-stimulated PBMCs, compound at 25 uM, 1 hour preincubation, 20 hours, read-out: percent inhibition of IL-1β production.
The mark [6] stands for this setting: LPS-stimulated PBMCs, compound at 25 uM, 1 hour preincubation, 20 hours, read-out: percent inhibition of IL-6 production.
The mark [7] stands for this setting: LPS-stimulated PBMCs, compound at 25 uM, 1 hour preincubation, 20 hours, read-out: percent inhibition of IL-8 production.
Where [8] appears, read: LPS-stimulated PBMCs, compound at 25 uM, 1 hour preincubation, 20 hours, read-out: percent inhibition of TNF-α production.
Where [9] appears, read: LPS-stimulated PBMCs, ISO-1 at 5.0 uM, 20 hours.
[10] abbreviates: LPS-stimulated PBMCs, ISO-1 at 50 uM, 20 hours.
[11] abbreviates: read-out: percent inhibition of IL-1β production.
Setting [12] is: read-out: percent inhibition of IL-6 production.
The mark [13] stands for this setting: read-out: percent inhibition of IL-8 production.
The mark [14] stands for this setting: read-out: percent inhibition of TNF-α production.

Usually IC50 stands for the concentration that gives 50% inhibition. As a reminder, the inhibition is the percentage by which the read-out fell short of the control.

Read-outs that look alike come from different tables or passages of the source.

The compound `C=CC(=O)N1CC(Nc2c(C#N)c(=O)n(CCOCC)c3ccccc23)C1` [Compound 3, 4-(1-Acryloyl-azetidin-3-ylamino)-1-(2-ethoxy-ethyl)-2-oxo-1,2-dihydro-quinoline-3-carbonitrile] came in with an IC50 against Native human MIF of over 100000 nM. In addition, the inhibition at 2.5 µM is 50 to 70% in the assay on LPS-stimulated PBMCs (setting [1]), under 10% with LPS-stimulated PBMCs (setting [2]), under 10% with LPS-stimulated PBMCs (setting [3]) and under 10% in the assay on LPS-stimulated PBMCs (setting [4]). The inhibition at 25 µM was 10 to 50% in the assay on LPS-stimulated PBMCs (setting [5]), under 10% in the assay with LPS-stimulated PBMCs (setting [6]), under 10% in the assay with LPS-stimulated PBMCs (setting [7]) and 10 to 50% with LPS-stimulated PBMCs (setting [8]).

The compound `C=CC(=O)N1CCC(Nc2c(C#N)c(=O)n(C)c3ccccc23)CC1` [Compound 4, 4-(1-Acryloyl-piperidin-4-ylamino)-1-methyl-2-oxo-1,2-dihydro-quinoline-3-carbonitrile] gave an IC50 against Native human MIF of over 100000 nM. Further, the inhibition at 2.5 µM is 10 to 50% with LPS-stimulated PBMCs (setting [1]), 10 to 50% in the assay on LPS-stimulated PBMCs (setting [2]), under 10% in the assay on LPS-stimulated PBMCs (setting [3]) and under 10% with LPS-stimulated PBMCs (setting [4]). Further, the inhibition at 25 µM with LPS-stimulated PBMCs (setting [5]) was 50 to 70%; in the assay on LPS-stimulated PBMCs (setting [6]), under 10%; with LPS-stimulated PBMCs (setting [7]), under 10%; in the assay with LPS-stimulated PBMCs (setting [8]), 10 to 50%.

Turning to `Cn1c(=O)c(C#N)c(NC2CCN(C(=O)c3cccs3)CC2)c2ccccc21` [Compound 5], the 50% inhibitory concentration (IC50) at Native human MIF was at most 1000 nM. For the same compound, the inhibition at 2.5 µM with LPS-stimulated PBMCs (setting [1]) was 50 to 70%; in the assay on LPS-stimulated PBMCs (setting [2]), 10 to 50%; with LPS-stimulated PBMCs (setting [3]) it was under 10%; in the assay with LPS-stimulated PBMCs (setting [4]) it was 10 to 50%. For the same compound, the inhibition at 25 µM in the assay on LPS-stimulated PBMCs (setting [5]) is over 70%; in the assay with LPS-stimulated PBMCs (setting [6]), under 10%; with LPS-stimulated PBMCs (setting [7]) it was under 10%; in the assay with LPS-stimulated PBMCs (setting [8]), 50 to 70%.

Consider `Cn1c(=O)c(C#N)c(NC2CN(C(=O)c3cccs3)C2)c2ccccc21` [Compound 6], for which the IC50 at Native human MIF is at most 1000 nM. The inhibition at 2.5 µM is 10 to 50% with LPS-stimulated PBMCs (setting [1]), 10 to 50% in the assay on LPS-stimulated PBMCs (setting [2]), under 10% in the assay with LPS-stimulated PBMCs (setting [3]) and 10 to 50% in the assay on LPS-stimulated PBMCs (setting [4]). Further, the inhibition at 25 µM in the assay on LPS-stimulated PBMCs (setting [5]) was 10 to 50%; with LPS-stimulated PBMCs (setting [6]), 10 to 50%; in the assay with LPS-stimulated PBMCs (setting [7]), under 10%; in the assay with LPS-stimulated PBMCs (setting [8]), 10 to 50%.

Take `N#Cc1c(NC2CN(C(=O)c3ccncc3)C2)c2ccccc2n(Cc2ccc(F)cc2)c1=O` [Compound 7]: the 50% inhibitory concentration (IC50) at Native human MIF was at most 1000 nM. In addition, the inhibition at 2.5 µM with LPS-stimulated PBMCs (setting [1]) is 50 to 70%; with LPS-stimulated PBMCs (setting [2]), 10 to 50%; with LPS-stimulated PBMCs (setting [3]), under 10%; in the assay with LPS-stimulated PBMCs (setting [4]), 10 to 50%. Moreover, the inhibition at 25 µM in the assay on LPS-stimulated PBMCs (setting [5]) is over 70%; in the assay on LPS-stimulated PBMCs (setting [6]), under 10%; in the assay with LPS-stimulated PBMCs (setting [7]), under 10%; in the assay on LPS-stimulated PBMCs (setting [8]), over 70%.

For the compound `N#Cc1c(NC2CN(C(=O)c3cccs3)C2)c2ccccc2n(Cc2ccc(F)cc2)c1=O` [Compound 8], the IC50 against Native human MIF is at most 1000 nM. In addition, the inhibition at 2.5 µM with LPS-stimulated PBMCs (setting [1]) is 50 to 70%; with LPS-stimulated PBMCs (setting [2]) it was under 10%; with LPS-stimulated PBMCs (setting [3]), under 10%; in the assay with LPS-stimulated PBMCs (setting [4]), 10 to 50%. For the same compound, the inhibition at 25 µM is over 70% with LPS-stimulated PBMCs (setting [5]), 10 to 50% in the assay with LPS-stimulated PBMCs (setting [6]), under 10% in the assay on LPS-stimulated PBMCs (setting [7]) and 10 to 50% with LPS-stimulated PBMCs (setting [8]).

Consider `COC(=O)CC1CC(c2ccc(O)cc2)=NO1` (stereo not drawn) [ISO-1, reference compound], for which, in the assay on LPS-stimulated PBMCs (setting [9]), the “percent inhibition of IL-1β production” value was “F (“F” represents >50% inhibition and ≦70% inhibition)”; the “percent inhibition of IL-6 production” value is given as “D (“D” represents ≦10% inhibition)”; the “percent inhibition of IL-8 production” value is “D (“D” represents ≦10% inhibition)”; the “percent inhibition of TNF-α production” value was “E (“E” represents >10% inhibition and ≦50% inhibition)”. For the same compound, in the assay on LPS-stimulated PBMCs (setting [10]), the “percent inhibition of IL-1β production” value was “G (“G” represents >70% inhibition)”; the “percent inhibition of IL-6 production” value is “F (“F” represents >50% inhibition and ≦70% inhibition)”; the “percent inhibition of IL-8 production” value was “E (“E” represents >10% inhibition and ≦50% inhibition)”; the “percent inhibition of TNF-α production” value is listed as “G (“G” represents >70% inhibition)”.

For `CC(C)C(=O)c1c(C(C)C)nn2ccccc12` [Ibudilast, reference compound], the inhibition at 2.5 µM was 50 to 70% in the assay with LPS-stimulated PBMCs (setting [1]), under 10% in the assay with LPS-stimulated PBMCs (setting [2]), under 10% with LPS-stimulated PBMCs (setting [3]) and over 70% with LPS-stimulated PBMCs (setting [4]). Also, the inhibition at 25 µM with LPS-stimulated PBMCs (setting [5]) was over 70%; with LPS-stimulated PBMCs (setting [6]), under 10%; in the assay with LPS-stimulated PBMCs (setting [7]), under 10%; in the assay with LPS-stimulated PBMCs (setting [8]), over 70%.

As to `CC(=O)N=C1C=CC(=O)C=C1` [NAPQI, N-acetyl-p-benzoquinone imine, reference compound], the inhibition at 2.5 µM with LPS-stimulated PBMCs (setting [11]) is 10 to 50%; in the assay with LPS-stimulated PBMCs (setting [12]) it was under 10%; in the assay with LPS-stimulated PBMCs (setting [13]) it was under 10%; with LPS-stimulated PBMCs (setting [14]), under 10%. Moreover, the inhibition at 25 µM was over 70% in the assay with LPS-stimulated PBMCs (setting [11]), under 10% in the assay on LPS-stimulated PBMCs (setting [12]), under 10% with LPS-stimulated PBMCs (setting [13]) and over 70% in the assay on LPS-stimulated PBMCs (setting [14]).
